Reference: patent publication US8580268B2, “CpG oligonucleotide analogs containing hydrophobic T analogs with enhanced immunostimulatory activity” (Coley Pharmaceutical GmbH, priority 2006, dated 2013)
“Also recorded” adds a separate entry of the source. Strand notation (5' to 3'): a small letter for the sugar, then the base; units joined by * are phosphorothioate-linked, units joined directly phosphodiester-linked; [ ] holds rarer units or linkages, { } end groups; capitals alone tell only the bases. [5IU] = 5-iodo-2'-deoxyuridine (JU); [5EtU] = 5-ethyl-2'-deoxyuridine (EU); d = 2'-deoxy (DNA)

Legend:
human PBMC [1] = assay: IFN-alpha production in human PBMC (ELISA); type: cell-based
Description: (§1) Peripheral blood buffy coat preparations from healthy human donors were obtained from the Blood Bank of the University of Düsseldorf (Germany) and PBMC were purified by centrifugation over Ficoll-Hypaque (Sigma). Cells were cultured in a humidified incubator at 37° C. in RPMI 1640 medium supplemented with 5% (v/v) heat inactivated human AB serum (BioWhittaker) or 10% (v/v) heat inactivated FCS, 2 mM L-glutamine, 100 U/ml penicillin and 100 μg/ml streptomycin (all from Sigma).
(§2) PBMC were resuspended at a concentration of 5×10^6 cells/ml and added to 96 well round-bottomed plates […]. PBMC were incubated with ODN and culture supernatants (SN) were collected after the indicated time points. If not used immediately, SN were stored at −20° C. until required.
(§3) Amounts of cytokines in the SN were assessed using an in-house ELISA for IFN-α developed using commercially available antibody (PBL, New Brunswick, N.J., USA) or on the Luminex multiplex system (Luminex Corporation, 12212 Technology Boulevard, Austin, Tex. 78727-6115).

BALB/c mice = assay: In vivo murine IFN-alpha induction after SC injection (ELISA); set-up: species or system mouse; conditions: bled at 3 hr post injection
Description: Female BALB/c mice (6-8 weeks of age) were purchased from Charles River Canada (Quebec, Canada) and housed in micro-isolators in the Animal Care Facility at Coley Pharmaceutical Group Canada. All studies were conducted in accordance with the Animal Care Committee of Coley Canada under the guidance of the Canadian Council on Animal Care. All animals were naïve to CpG ODNs.
In order to determine the effect of the modified P-class ODN in vivo, BALB/c mice (5 per group) were injected SC with differing doses of ODN. Animals were bled at 3 hr post injection and plasma tested for IFN-alpha by ELISA. The activity of modified P-class ODN (SEQ ID NO:58, 60-62, 64, and 67) was compared to that of a B-class negative control (SEQ ID NO:55) and a negative control (SEQ ID NO:26).

human PBMC [2] = assay: IL-6 induction in human PBMC (luminex); type: cell-based; conditions: human PBMC from three donors, 24 h
Description: as §1, §2, §3
Next the modified P-class ODN were tested for the ability to induce IL-6 in human PBMC. PBMC from three donors were incubated with ODN at concentrations as indicated for 24 h, followed by luminex 25-plex analysis of the supernatants for IL-6. The activity of modified P-class ODN (SEQ ID NO:58, 60-62, FIG. 28a) (SEQ ID NO:64 and 67, FIG. 28b) was compared to that of an unmodified B-class ODN (SEQ ID NO:55), and unmodified C-class ODN (SEQ ID NO:54), a negative control ODN (SEQ ID NO:53), and an unmodified P-class ODN (SEQ ID NO:56).

human TLR9 = target: T1, human TLR9 (Homo sapiens, UniProt Q9NR96); assay: TLR9 luciferase assay (NF-κB reporter) in hTLR9-LUC-293 cells; type: cell-based; conditions: 16 h, stated in words relative to the comparator ODN
T1 construct: expressed in transfected cells
T1 sequence (Q9NR96 26-1032): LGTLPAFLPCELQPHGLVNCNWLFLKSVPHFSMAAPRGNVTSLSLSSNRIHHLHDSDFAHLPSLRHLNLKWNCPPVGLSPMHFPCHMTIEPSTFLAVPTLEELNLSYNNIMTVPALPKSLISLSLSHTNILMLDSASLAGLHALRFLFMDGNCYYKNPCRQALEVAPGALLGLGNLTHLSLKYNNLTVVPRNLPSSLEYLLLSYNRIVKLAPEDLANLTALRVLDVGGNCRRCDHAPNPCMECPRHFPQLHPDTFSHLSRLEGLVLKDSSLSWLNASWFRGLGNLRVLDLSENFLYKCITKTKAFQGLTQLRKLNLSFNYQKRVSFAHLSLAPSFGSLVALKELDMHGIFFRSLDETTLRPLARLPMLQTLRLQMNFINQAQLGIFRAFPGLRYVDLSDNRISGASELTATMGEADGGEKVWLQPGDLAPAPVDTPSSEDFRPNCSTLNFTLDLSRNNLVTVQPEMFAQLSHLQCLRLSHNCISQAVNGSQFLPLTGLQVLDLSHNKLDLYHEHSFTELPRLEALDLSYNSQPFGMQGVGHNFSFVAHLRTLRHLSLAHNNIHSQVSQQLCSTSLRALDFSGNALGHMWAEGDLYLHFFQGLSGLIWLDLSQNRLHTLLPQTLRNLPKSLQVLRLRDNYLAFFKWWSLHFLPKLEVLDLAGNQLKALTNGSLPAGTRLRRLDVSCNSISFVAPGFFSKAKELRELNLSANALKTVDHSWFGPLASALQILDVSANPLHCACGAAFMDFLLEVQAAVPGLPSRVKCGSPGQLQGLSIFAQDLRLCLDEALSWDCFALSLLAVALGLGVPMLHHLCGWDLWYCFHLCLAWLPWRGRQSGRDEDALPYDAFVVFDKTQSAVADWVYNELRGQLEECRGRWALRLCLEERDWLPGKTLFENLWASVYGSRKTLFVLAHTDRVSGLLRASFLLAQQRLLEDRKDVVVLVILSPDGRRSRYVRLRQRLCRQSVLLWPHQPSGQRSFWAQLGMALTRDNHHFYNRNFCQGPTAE
Description: HEK293 cells were transfected by electroporation with vectors expressing the respective human TLR and a 6xNF-κB-luciferase reporter plasmid. Stable transfectants (3×10^4 cells/well) were incubated indicated amounts of ODN for 16 h at 37° C. in a humidified incubator. Each data point was done in triplicate. Cells were lysed and assayed for luciferase gene activity (using the BriteLite kit from Perkin-Elmer, Zaventem, Belgium). Stimulation indices were calculated in reference to reporter gene activity of medium without addition of ODN.

SaI/N tumor cells = assay: Mouse SA1N tumor model; type: in vivo; conditions: A/J mice
Description: SA1N tumor model: Female A/J mice (10 per group) were injected SC with 5×10^5 SaI/N tumor cells on day 0. Mice were treated with 100 μg ODN or PBS alone given SC once weekly starting on day 8 post tumor induction. Animals were monitored for survival and tumor volume. Tumor size (the length and the width) was measured using a digital vernier caliper. Tumor volume was calculated by using the formula: Tumor volume=(0.4) (ab2), where a=large diameter and b=smaller diameter.
Next the modified P-class ODN were evaluated for their ability to reduce tumor volume mouse SA1N tumor model. Female A/J mice (10 per group) were injected SC with 5×10^5 SaI/N tumor cells on day 0. Mice were treated with 35 μg (FIG. 31a) or 100 μg (FIG. 31b) P-class ODN with a lipophilic substituted nucleotide analog (SEQ ID NO:60, 64, and 67), an unmodified C-class ODN, an unmodified B-class ODN (SEQ ID NO:55), or PBS alone. ODN were given SC once weekly starting on day 8 post tumor induction. Animals were monitored for survival and tumor volume.

[3] = 35 μg ODN SC once weekly from day 8
[4] = 100 μg ODN SC once weekly from day 8

## T*G*T*C-G*T*T*T*T*T*T*T*T*T*T*T*T*T*T*T (DNA dT*dG*dT*dCdG*dT*dT*dT*dT*dT*dT*dT*dT*dT*dT*dT*dT*dT*dT*dT) [SEQ ID NO:1, reference compound]
Human PBMC [1]; human PBMC, 24 h, supernatants by ELISA, B-class ODN
  IFN-alpha production: virtually inactive

## JU*C-G*A*C*G*T*C*G*A*T*C*G*G*C*G*C*G*C*G*C*C*G (DNA d[5IU]*dCdG*dA*dC*dG*dT*dC*dG*dA*dT*dC*dG*dG*dC*dG*dC*dG*dC*dG*dC*dC*dG) [SEQ ID NO:58, JU-modified P-class]
BALB/c mice
  plasma IFN-alpha induction: slightly higher IFN-alpha induction
Human PBMC [2]
  IL-6 induction: slightly higher activation of IL-6

## JU*C*G*A*C*G*T*C*G*A*T*C*G*G*C*G*C*G*C*G*C*C*G*T (DNA d[5IU]*dC*dG*dA*dC*dG*dT*dC*dG*dA*dT*dC*dG*dG*dC*dG*dC*dG*dC*dG*dC*dC*dG*dT) [SEQ ID NO:61, JU-modified P-class]
BALB/c mice
  plasma IFN-alpha induction: slightly higher IFN-alpha induction
Human PBMC [2]
  IL-6 induction: slightly higher activation of IL-6

## JU*C*G*T*C*G*A*C*G*A*T*C*G*G*C*G*G*C*C*G*C*C*G*T (DNA d[5IU]*dC*dG*dT*dC*dG*dA*dC*dG*dA*dT*dC*dG*dG*dC*dG*dG*dC*dC*dG*dC*dC*dG*dT) [SEQ ID NO:67, JU-modified fully phosphorothioate P-class]
Human TLR9
  TLR9 stimulation (NF-κB luciferase activity, relative stimulation index): higher degree of TLR9 stimulation than the unmodified P class ODN
SaI/N tumor cells; [3]
  reduction in tumor volume: greatest reduction in tumor volume
SaI/N tumor cells; [4]
  reduction in tumor volume: effective in reducing tumor volume
Human PBMC [2]
  IL-6 induction: slightly higher activation of IL-6

## EU*C-G*A*C*G*T*C*G*A*T*C*G*G*C*G*C*G*C*G*C*C*G (DNA d[5EtU]*dCdG*dA*dC*dG*dT*dC*dG*dA*dT*dC*dG*dG*dC*dG*dC*dG*dC*dG*dC*dC*dG) [SEQ ID NO:64, EU-modified P-class]
Human TLR9
  TLR9 stimulation (NF-κB luciferase activity, relative stimulation index): higher degree of TLR9 stimulation than the unmodified P class ODN
SaI/N tumor cells; [3]
  reduction in tumor volume: greatest reduction in tumor volume
SaI/N tumor cells; [4]
  reduction in tumor volume: effective in reducing tumor volume

## JU*C-G*A*C*G*T*C*G*A*T*C*G*G*C*G*C*G*C*G*C*C*G*T (DNA d[5IU]*dCdG*dA*dC*dG*dT*dC*dG*dA*dT*dC*dG*dG*dC*dG*dC*dG*dC*dG*dC*dC*dG*dT) [SEQ ID NO:60, JU-modified P-class]
BALB/c mice
  plasma IFN-alpha induction: slightly higher IFN-alpha induction
SaI/N tumor cells; [3]
  reduction in tumor volume: greatest reduction in tumor volume
SaI/N tumor cells; [4]
  reduction in tumor volume: effective in reducing tumor volume
Human PBMC [2]
  IL-6 induction: slightly higher activation of IL-6

## JU*C-G*T*C*G*A*C*G*A*T*C*G*G*C*G*G*C*C*G*C*C*G*T (DNA d[5IU]*dCdG*dT*dC*dG*dA*dC*dG*dA*dT*dC*dG*dG*dC*dG*dG*dC*dC*dG*dC*dC*dG*dT) [SEQ ID NO:66, JU-modified P-class with phosphodiester bond in the CG dinucleotide]
Human PBMC [1]; human PBMC incubated 48 hours, ELISA, P-class ODN
  IFN-alpha induction: reduced activity compared to SEQ ID NO:67
Human TLR9
  TLR9 stimulation (NF-κB luciferase activity, relative stimulation index): higher degree of TLR9 stimulation than the unmodified P class ODN; also recorded: reduced activity compared to the fully phosphorothioate SEQ ID NO:67
